This note sets out measurements from patent US8912146B2, “Derivatives of APF and methods of use” (University of Maryland, Baltimore, priority 2008, dated 2014).

Molecules are shown by their SMILES. *1 amine or outer side, *2 acyl side, *3 side chain or, on linkers, in order; H or OH if unused. Where a SMILES comes first, the peptide text is derived from it. [ ]: non-standard residue; d: D form. The star is where a group is joined. ξ: configuration not given here. X1 = CC(=O)NC1C(O[C@@H]2OC(CO)[C@H](O)C(O)C2O)[C@@H](O)C(CO)O[C@@H]1*; X4 = CC1(C)OC[C@@H](C(=O)[*:2])N1[*:1]; X3 = O=C([C@@H]1CC(O)CN1[*:1])[*:2]; Thr(3ξ) = CC(O)[C@H](N)C(=O)O; ξY = NC(Cc1ccc(O)cc1)C(=O)O; ξI = CCC(C)C(N)C(=O)O; ξL = CC(C)CC(N)C(=O)O; ξV = CC(C)C(N)C(=O)O; ξA = CC(N)C(=O)O

The subject of the test is primary normal human bladder epithelial cells. As to the kind of experiment: 3H-thymidine incorporation (antiproliferative activity) in primary normal bladder epithelial cells. The format is cell-based. Conditions: for % of activity: relative to 1 (as-APF) run on the same plate, from IC50, inactive = no significant activity at <25 μM. The protocol:
Cell Culture. Cystoscopy was performed under general anesthesia, and 4-mm^2 pieces of transitional epithelium with submucosal bladder tissue were obtained for the growth of primary bladder epithelial cells, as previously described (Keay et al., 1996; 2004). Primary normal bladder epithelial cells were propagated in DMEM-F12 (Media-Tech, Herndon Va.) with 10% heat-inactivated fetal bovine serum (FBS), 1% antibiotic/antimycotic solution, 1% L-glutamine, 0.25 units/mL insulin (all from Sigma, St. Louis, Mo.), and 5 ng/mL hEGF (R&D Systems, Minneapolis, Minn.) at 37° C. in a 5% CO2 atmosphere and characterized by binding of AE-1/AE-3 pancytokeratin antibodies (Signet, Dedham, Mass.).
^3H-Thymidine Incorporation. Cell proliferation was measured by ^3H-thymidine incorporation into explanted normal human bladder epithelial cells, plating 1.5×10^4 cells/well onto a 96 well cell culture plate (VWR 29442-054), in 150 ul/well MEM containing 10% heat inactivated FBS, 1% antibiotic/antimycotic solution, and 1% L-glutamine (all from Sigma), resulting in a doubling time of 48-72 hours, as previously described (Keay et al., 1996; 2004). Each purified lyophilized synthetic APF congener was resuspended in acetonitrile/distilled water (1:1), and applied to the cells in serum-free MEM (containing only L-glutamine and antibiotics/antimycotics); cell controls received acetonitrile/distilled water diluted in serum-free MEM alone. Cells were then incubated at 37° C. in a 5% CO2 atmosphere for 48 hours. The cell contents harvested and methanol-fixed onto glass fiber filter paper, and the amount of radioactivity incorporated determined. Significant inhibition of ^3H-thymidine incorporation was defined as a mean decrease in counts per minute of greater than 2 standard deviations from the mean of control cells for each plate. Inhibition of cell proliferation was determined from a semi-log plot of dose-response for each APF derivative; IC50 was determined as the concentration of each derivative that caused a mean 50% inhibition of thymidine incorporation as compared to the mean of untreated cell controls.
Statistical Analysis. The thymidine incorporation (APF biological activity) assay was performed in triplicate on at least two separate runs, with 1 run simultaneously in triplicate on the same plate. The significance of the difference between mean values for each congener vs. mean values for compound 1 was determined by an analysis of variance.

On to `CC(=O)NC1C(O[C@@H]2OC(CO)[C@H](O)C(O)C2O)[C@@H](O)C(CO)O[C@@H]1OC(C)[C@H](NC(=O)C(N)Cc1ccc(O)cc1)C(=O)NC(CC(C)C)C(=O)N1CCC[C@H]1C(=O)NC(C)C(=O)N[C@@H](C)C(=O)NC(C(=O)N[C@H](C(=O)NC(C(=O)N[C@@H](C)C(=O)O)C(C)C)C(C)C)C(C)C` (stereo partly shown) [Derivative 6] (H-[ξY][Thr(3ξ)](X1)[ξL]P[ξA]A[ξV]V[ξV]A-OH), for which the “antiproliferative activity compared with as-APF (1), in words” value is on record as “approximately 2 orders of magnitude loss of potency” and the “% of activity” value stood at 1%.
With `CC(=O)NC1C(O[C@@H]2OC(CO)[C@H](O)C(O)C2O)[C@@H](O)C(CO)O[C@@H]1OC(C)[C@H](N)C(=O)NC(C(=O)N1CC(O)C[C@H]1C(=O)NC(C)C(=O)N[C@@H](C)C(=O)NC(C(=O)N[C@H](C(=O)NC(C(=O)N[C@@H](C)C(=O)O)C(C)C)C(C)C)C(C)C)C(C)C` (stereo partly shown) [Derivative 12] (H-[Thr(3ξ)](X1)[ξV][X3][ξA]A[ξV]V[ξV]A-OH), the “antiproliferative activity compared with as-APF (1), in words” value is reported as 2-3 orders of magnitude decrease and the “% of activity” value is on record as 0.3%.
The matching figures for `CC(=O)NC1C(O[C@@H]2OC(CO)[C@H](O)C(O)C2O)[C@@H](O)C(CO)O[C@@H]1OC(C)[C@H](N)C(=O)NC(C(=O)N1CCC[C@H]1C(=O)NC(C)C(=O)N[C@@H](C)C(=O)NC(C(=O)N[C@H](C(=O)NC(C)C(=O)N[C@H](C(=O)O)C(C)C)C(C)C)C(C)C)C(C)C` (stereo partly shown) [Derivative 20] (H-[Thr(3ξ)](X1)[ξV]P[ξA]A[ξV]V[ξA]V-OH): “loss of most or all biological activity” and “inactive”.
Consider `CC(=O)NC1C(O[C@@H]2OC(CO)[C@H](O)C(O)C2O)[C@@H](O)C(CO)O[C@@H]1OC(C)[C@H](N)C(=O)NC(C(=O)N[C@@H](C)C(=O)NC(C)C(=O)N[C@@H](C)C(=O)NC(C(=O)N[C@H](C(=O)NC(C(=O)N[C@@H](C)C(=O)O)C(C)C)C(C)C)C(C)C)C(C)C` (stereo partly shown) [Derivative 11] (H-[Thr(3ξ)](X1)[ξV]A[ξA]A[ξV]V[ξV]A-OH), for which the “antiproliferative activity compared with as-APF (1), in words” value is recorded as 2-3 orders of magnitude decrease and the “% of activity” value is given as 0.3%.
`CC(=O)NC1C(O[C@@H]2OC(CO)[C@H](O)C(O)C2O)[C@@H](O)C(CO)O[C@@H]1OC(C)[C@H](N)C(=O)NC(C(=O)N1CCC[C@H]1C(=O)NC(C)C(=O)N[C@@H](C)C(=O)NC(C(=O)NC(C(=O)NC(C(=O)N[C@@H](C)C(=O)O)C(C)C)C(C)C)C(C)C)C(C)C` (stereo partly shown) [Derivative 27]: the “antiproliferative activity compared with as-APF (1), in words” value is listed as “complete inactivation of antiproliferative activity” and the “% of activity” value is “inactive”.
As for `CC(=O)NC1C(O[C@@H]2OC(CO)[C@H](O)C(O)C2O)[C@@H](O)C(CO)O[C@@H]1OC(C)[C@H](N)C(=O)NC(C(=O)N1CCC[C@H]1C(=O)NC(C)C(=O)NCC(=O)NC(C(=O)N[C@H](C(=O)NC(C(=O)NCC(=O)O)C(C)C)C(C)C)C(C)C)C(C)C` (stereo partly shown) [Derivative 24] (H-[Thr(3ξ)](X1)[ξV]P[ξA]G[ξV]V[ξV]G-OH), the “antiproliferative activity compared with as-APF (1), in words” value is listed as “complete inactivation” and the “% of activity” value was “inactive”.
The matching figures for `CCC(C)C(NC(=O)[C@H](C)NC(=O)C(C)NC(=O)[C@@H]1CCCN1C(=O)C(NC(=O)[C@@H](N)C(C)O[C@H]1OC(CO)[C@H](O)C(O[C@@H]2OC(CO)[C@H](O)C(O)C2O)C1NC(C)=O)C(C)C)C(=O)N[C@H](C(=O)NC(C(=O)N[C@@H](C)C(=O)O)C(C)CC)C(C)C` (stereo partly shown) [Derivative 28] (H-[Thr(3ξ)](X1)[ξV]P[ξA]A[ξI]V[ξI]A-OH): “complete inactivation of antiproliferative activity” and “inactive”.
Consider `CC(=O)NC1C(O[C@@H]2OC(CO)[C@H](O)C(O)C2O)[C@@H](O)C(CO)O[C@@H]1OC(C)[C@H](N)C(=O)NC(C(=O)N1[C@H](C(=O)NC(C)C(=O)N[C@@H](C)C(=O)NC(C(=O)N[C@H](C(=O)NC(C(=O)N[C@@H](C)C(=O)O)C(C)C)C(C)C)C(C)C)COC1(C)C)C(C)C` (stereo partly shown) [Derivative 9] (H-[Thr(3ξ)](X1)[ξV][X4][ξA]A[ξV]V[ξV]A-OH), for which the “antiproliferative activity compared with as-APF (1), in words” value was “completely abolished activity” and the “% of activity” value was “inactive”.
`CC(=O)NC1C(O[C@@H]2OC(CO)[C@H](O)C(O)C2O)[C@@H](O)C(CO)O[C@@H]1OC(C)[C@H](N)C(=O)NC(C(=O)N1CCC[C@H]1C(=O)NC(C)C(=O)N[C@H](C(=O)NC(C(=O)N[C@H](C(=O)NC(C(=O)N[C@@H](C)C(=O)O)C(C)C)C(C)C)C(C)C)C(C)C)C(C)C` (stereo partly shown) [Derivative 22] (H-[Thr(3ξ)](X1)[ξV]P[ξA]V[ξV]V[ξV]A-OH): the “antiproliferative activity compared with as-APF (1), in words” value is on record as “loss of most or all biological activity” and the “% of activity” value was “inactive”.
Take `CC(=O)NC1C(O[C@@H]2OC(CO)[C@H](O)C(O)C2O)[C@@H](O)C(CO)O[C@@H]1OC(C)[C@H](N)C(=O)NC(C(=O)N1CCC[C@H]1C(=O)NC(C)C(=O)N[C@@H](C)C(=O)NC(C(=O)N[C@H](C(=O)O)C(C)C)C(C)C)C(C)C` (stereo partly shown) [Derivative 19, Galβ1-3GalNAcα-O-TVPAAVV] (H-[Thr(3ξ)](X1)[ξV]P[ξA]A[ξV]V-OH): the “antiproliferative activity compared with as-APF (1), in words” value was “completely inactive” and the “% of activity” value is “inactive”.
For `CC(=O)NC1C(O[C@@H]2OC(CO)[C@H](O)C(O)C2O)[C@@H](O)C(CO)O[C@@H]1OC(C)[C@H](N)C(=O)NC(C(=O)N1CCC[C@H]1C(=O)NC(C)C(=O)N[C@@H](C)C(=O)NCC(=O)NCC(=O)NCC(=O)N[C@@H](C)C(=O)O)C(C)C` (stereo partly shown) [Derivative 26] (H-[Thr(3ξ)](X1)[ξV]P[ξA]AGGGA-OH), the “antiproliferative activity compared with as-APF (1), in words” value is on record as “complete inactivation of antiproliferative activity” and the “% of activity” value was 0.01%.
For `CC(=O)NC1C(O[C@@H]2OC(CO)[C@H](O)C(O)C2O)[C@@H](O)C(CO)O[C@@H]1OC(C)[C@H](N)C(=O)NC(C(=O)N1CCC[C@H]1C(=O)NC(C)C(=O)N[C@@H](C)C(=O)O)C(C)C` (stereo partly shown) [Derivative 17] (H-[Thr(3ξ)](X1)[ξV]P[ξA]A-OH), the “antiproliferative activity compared with as-APF (1), in words” value was “completely inactive” and the “% of activity” value was “inactive”.
Consider `CC(=O)NC1C(O[C@@H]2OC(CO)[C@H](O)C(O)C2O)[C@@H](O)C(CO)O[C@@H]1OC[C@H](N)C(=O)NC(C(=O)N1CCC[C@H]1C(=O)NC(C)C(=O)N[C@@H](C)C(=O)NC(C(=O)N[C@H](C(=O)NC(C(=O)N[C@@H](C)C(=O)O)C(C)C)C(C)C)C(C)C)C(C)C` (stereo partly shown) [Derivative 3] (H-S(X1)[ξV]P[ξA]A[ξV]V[ξV]A-OH), for which the “antiproliferative activity compared with as-APF (1), in words” value is reported as 4 orders of magnitude and the “% of activity” value turned out to be 0.01%.
The matching figures for `CC(=O)NC1C(O[C@@H]2OC(CO)[C@H](O)C(O)C2O)[C@@H](O)C(CO)O[C@@H]1OC(C)[C@H](N)C(=O)NC(C(=O)N1CCC[C@H]1C(=O)NC(C)C(=O)N[C@@H](C)C(=O)NC(C(=O)N[C@H](C(=O)NC(C(=O)N[C@@H](CC(C)C)C(=O)O)C(C)C)C(C)C)C(C)C)C(C)C` (stereo partly drawn) [Derivative 21] (H-[Thr(3ξ)](X1)[ξV]P[ξA]A[ξV]V[ξV]L-OH): “loss of most or all biological activity” and 0.01%.
